The values below are quoted from earlier work in PMC9177108 (The Oncologist, 2022).

Data set [1] relates to patients with RM-NPC. The conditions noted are these: 37 recruited patients with RM-NPC; cited from earlier work.
The subject of data set [2] is NPC patients. The conditions noted are these: 58 NPC patients, cited from earlier work.
For data set [3], the system named is patients with advanced NPC. The conditions noted are these: first-line regimen; cited from earlier work.
Data set [4] deals with relapsed and refractory patients with NPC. As to conditions: cited from earlier work.
For data set [5], the system named is patients with NPC. As to conditions: 33 patients with NPC; cited from earlier work.

As for `CNC(=O)c1ccccc1Sc1ccc2c(/C=C/c3ccccn3)n[nH]c2c1` [Axitinib], in data set [1], the DCR is given as 78.4, the ORR is listed as 19%, the “median PFS” value is reported as 5 months and the “overall survival (OS)” value is on record as 10 months.
For `CCN(CC)CCN1CCc2[nH]c(/C=C3\C(=O)Nc4ccc(F)cc43)c(C)c2C1=O` [Famitinib], in data set [2], the ORR is reported as 6.9% and the “median PFS” value is recorded as 3.2 months. For the same compound, in data set [2] (at 3 months), the DCR is listed as 32.8%.
Consider cisplatin and 5-fluorouracil, for which, in data set [3], the “median PFS” value was 11-14 months and the response rate is on record as 66-78%.
Consider `N#CC1(c2ccc(NC(=O)c3cccnc3NCc3ccncc3)cc2)CCCC1` [apatinib], for which the ORR in data set [4] (51 patients (16/51), no response to first- or second-line chemotherapy) is 31.4%. For the same compound, in data set [4] (51 patients), the OS is reported as 16 months and the “median PFS” value is on record as 9 months.
With `Cc1ccc(Nc2nccc(N(C)c3ccc4c(C)n(C)nc4c3)n2)cc1S(N)(=O)=O` [pazopanib], the ORR in data set [5] was 6.1%.
